Read-outs that look alike come from different tables or passages of the source.
Key:
[1] = system: isolated mouse pancreatic islets; type: cell-based; details: for glucagon secretion, % of that at 1 mmol/l glucose: mean ± SEM
Description: Experiments were conducted as previously described. Islets were incubated in 0.3 ml EC1 or EC2 media (ESM Table 2) supplemented with glucose and other reagents as indicated.
All data are reported, unless otherwise stated, as mean values ± SEM for the indicated number of experiments using islets from multiple mice. For hormone release studies, islets were isolated and pooled from 4–16 mice. These islets were then subdivided into groups of 12–20 size-matched islets. Each unique set of islets counted as an experiment with the experiments repeated on 2–4 days. Similarly, each unique group of human islets was treated as an experiment. […] In the Ca^2+ imaging and granule docking experiment, each cell represents an experiment making sure that cells from multiple donors/animals were used. For the in vivo experiments and the perfused pancreas, each mouse count represents an experiment. For two groupings, a t test was conducted. For multiple comparisons, one-way ANOVA was conducted. All statistical tests were performed using Graphpad Prism (version 9.1.0; graphpad.com).

human alpha cells = assay: TIRF imaging of docked secretory granules in human alpha cells; type: cell-based; details: 10 pmol/l
Description: Cells were imaged using total internal reflection fluorescence (TIRF) microscopy (AxioObserver Z1 with a ×100/1.45 objective [Carl Zeiss] and a diode-pumped solid state laser at 491 nm). For these measurements, EC1 was used (ESM Table 2). Images from cells infected with preproglucagon promoter (PPPG)-neuropeptide Y (NPY)-enhanced green fluorescent protein (EGFP) virus were recorded using an electron-multiplying charge-coupled device camera (Photometrics Evolve) using ZEN blue. Single images of cells were acquired to measure the number of docked granules. Incoming and outgoing granules during visiting, docking and undocking were determined from multiple frame movies as described previously. Candidate docking or undocking events were found manually as granules that approached the TIRF field with an axial component and became laterally confined for at least two frames. We defined docking as granules that remained confined for at least 1 min. Visitors were those granules that remained for <1 min after appearing at the plasma membrane. Undocking was defined as slow movement of a previously docked granule away from its docking site. Granule density was calculated using a script that used the built-in ‘find maxima’ function in ImageJ (version 1.53c; http://rsbweb.nih.gov/ij) for spot detection.

P/Q-type Ca^2+ channels = assay: [Ca2+]i imaging of depolarisation-evoked Ca2+ entry in alpha cells (Gcg-GCaMP6f islets); type: cell-based, mouse; details: 10 pmol/l, 70 mmol/l [K+]o, isradipine 10 μmol/l; n=139 cells from 4 mice
Description: For live-cell cytoplasmic free Ca^2+ concentration ([Ca^2+]i) imaging experiments, Gcg-GCaMP6f islets were immobilised to a poly-L-lysine-coated coverslip fixed in a custom-built imaging chamber filled with EC3 (ESM Table 2). [Ca^2+]i was measured in islets from mice expressing GCaMP6f in alpha cells. [Ca^2+]i imaging experiments were then performed using an inverted LSM 510 confocal microscope (Zeiss) controlled with ZEN Black (Zeiss), using a ×40/1.3 oil immersion objective. Time-lapse images were collected every 0.98 s with a frame size of 256×256 pixels, with the bath solution (EC3) perfused at a rate of 0.4 ml/min and heated to 37°C. GCaMP6f was excited by an argon laser (488 nm) and emission was collected at 510 nm.
[Ca^2+]i imaging videos were analysed using the Fiji imaging processing package. The mean fluorescence (F) of each region of interest was normalised to baseline signal (F0) and expressed as F/F0 before exporting into ClampFit (version 10.7; Molecular Devices, CA, USA), where baseline was corrected and AUC was calculated.

CC[C@H](C)[C@H](NC(=O)[C@H](Cc1ccccc1)NC(=O)[C@H](CCC(=O)O)NC(=O)[C@H](CCCCN)NC(=O)[C@H](C)NC(=O)[C@H](C)NC(=O)[C@H](CCC(N)=O)NC(=O)CNC(=O)[C@H](CCC(=O)O)NC(=O)[C@H](CC(C)C)NC(=O)[C@H](Cc1ccc(O)cc1)NC(=O)[C@H](CO)NC(=O)[C@H](CO)NC(=O)[C@@H](NC(=O)[C@H](CC(=O)O)NC(=O)[C@H](CO)NC(=O)[C@@H](NC(=O)[C@H](Cc1ccccc1)NC(=O)[C@@H](NC(=O)CNC(=O)[C@@H](N)CCC(=O)O)[C@@H](C)O)[C@@H](C)O)C(C)C)C(=O)N[C@@H](C)C(=O)N[C@@H](Cc1c[nH]c2ccccc12)C(=O)N[C@@H](CC(C)C)C(=O)N[C@H](C(=O)N[C@@H](CCCCN)C(=O)NCC(=O)N[C@@H](CCCNC(=N)N)C(N)=O)C(C)C [GLP-1(9–36)]
glucagon secretion, % of that at 1 mmol/l glucose ([1]; 10 pmol/l GLP-1(9–36) in the presence of REMD2.59 100 nmol/l): 110±4%
inhibitory effect on glucagon secretion in Glp1r−/− mouse islets ([1]; 10 pmol/l, Glp1r−/− islets, 1 mmol/l glucose): persisted
glucagonostatic effect in the presence of exendin(9–39) ([1]; 10 pmol/l, exendin(9–39) 1 μmol/l, 1 mmol/l glucose): retained their glucagonostatic effect
inhibition of glucagon secretion ([1]; 30 pmol/l, 1 mmol/l glucose): 55%
change of glucagon secretion compared with 10 mmol/l glucose alone ([1]; 30 pmol/l, 10 mmol/l glucose): −50%
glucagon secretion, % of that at 1 mmol/l glucose ([1]; 1000 pmol/l GLP-1(9–36) in the presence of REMD2.59 100 nmol/l): 76±5%
glucagonostatic effect in the presence of the PKA inhibitor 8-Br-Rp-cAMPS ([1]; 8-Br-Rp-cAMPS 10 μmol/l, 1 mmol/l glucose): retains its glucagonostatic capacity
IC50 ([1]; 48 h): 4 pM
inhibition of amino acid-induced glucagon secretion ([1]; AA 6 mmol/l (2 mmol/l each glutamine, alanine, arginine), 1 mmol/l glucose): −66%
reduction of isoprenaline-stimulated glucagon secretion ([1]; in the presence of isoprenaline): 75%
inhibition of glucagon secretion ([1]; islets cultured overnight without PTX, 1 mmol/l glucose): ~ 50%
reduction of glucagon secretion evoked by 70 mmol/l [K+]o ([1]; membrane depolarisation, 70 mmol/l extracellular K+): 60%
inhibitory effect on glucagon secretion after PTX pretreatment ([1]; overnight PTX 100 ng/ml, 1 mmol/l glucose): almost abolished
expected inhibition of glucagon secretion by circulating levels ([1]; ~30 pmol/l, from the dose–inhibition curves established in vitro): up to 80%
increase of docking (human alpha cells; alpha cells from donors with type 2 diabetes): 40%
reduction of the number of docked granules (human alpha cells; alpha cells from healthy donors, after 15 min): 52%
reduction of depolarisation-induced P/Q-type Ca2+ channel-mediated Ca2+ entry (P/Q-type Ca^2+ channels): 34±4%

Reference: paper PMC10844371 (Diabetologia, 2023)
